Reference: patent US20140128399A1, “METHODS AND COMPOSITIONS FOR TREATING URINARY TRACT INFECTIONS USING AGENTS THAT MIMIC OR ELEVATE CYCLIC AMP” (DUKE UNIVERSITY, priority 2007, published 2014)

Key:
[1] = test system: E. coli-infected human bladder epithelial cells (BECs); experiment: Intracellular bacterial levels in BECs; format: cell-based; conditions: single agent, presented as % of control in figures
Experimental: Intracellular bacterial levels in BECs were measured in untreated BECs and in BECs treated with forskolin, various PDE inhibitors, and a combination of forskolin with a PDE inhibitor. Several PDE inhibitors were used, including both broadly active PDE inhibitors that block PDEs in a non-specific manner as well as specific PDE inhibitors that block only certain PDEs.

phosphodiesterases = conditions: read-out: IC50, non-specific inhibitor of phosphodiesterases; cited from earlier work
[2] = test system: human bladder epithelial cells; experiment: Intracellular cAMP enzyme immunoassay; format: cell-based
Experimental: In this example, the effect of bacterial lipopolysccharide (LPS), a Toll-like Receptor 4 (TLR4) ligand, on intracellular levels of cAMP was assessed in human bladder epithelial cells (BECs). Methods are as described in Song et al. (2007) PLoS Pathog. 3(4):e60. BECs were seeded onto 6-well plates and grown overnight. The cells were treated with […] E. coli LPS for 6 h at 37° C., followed by washing four times with PBS to remove culture media, followed by an addition of […] of 0.1 M HCl. After a 10 min incubation, the cell lysate was centrifuged and the supernatant was used directly in the cAMP assay. Intracellular concentrations of cAMP were determined using a cAMP enzyme immunoassay kit (Sigma) according to the manufacturer's instructions.

Row | Compound | bacterial loads / intracellular bacterial numbers in BECs [1] | IC50 (phosphodiesterases) | intracellular cAMP levels compared to untreated controls [2]
1 | CCCCCCCCCCCCCC(=O)O[C@@H]1[C@@H](C)[C@@]2(O)[C@@H](C=C(CO)C[C@]3(O)C(=O)C(C)=C[C@@H]23)[C@@H]2C(C)(C)[C@]12OC(C)=O [PMA, phorbol myristate acetate] | significantly reduced |  | 
2 | CC(C)Cn1c(=O)n(C)c(=O)c2[nH]cnc21 [IBMX, 3-Isobutyl-1-methylxanthine] |  | 2 to 50 µM | significantly increases
